Common to all, as to type: cell-based
Experiment [1] has as its target T1, human muscarinic acetylcholine M1 receptor (M1R) (Homo sapiens, UniProt P11229).
T1 sequence (P11229 1-460): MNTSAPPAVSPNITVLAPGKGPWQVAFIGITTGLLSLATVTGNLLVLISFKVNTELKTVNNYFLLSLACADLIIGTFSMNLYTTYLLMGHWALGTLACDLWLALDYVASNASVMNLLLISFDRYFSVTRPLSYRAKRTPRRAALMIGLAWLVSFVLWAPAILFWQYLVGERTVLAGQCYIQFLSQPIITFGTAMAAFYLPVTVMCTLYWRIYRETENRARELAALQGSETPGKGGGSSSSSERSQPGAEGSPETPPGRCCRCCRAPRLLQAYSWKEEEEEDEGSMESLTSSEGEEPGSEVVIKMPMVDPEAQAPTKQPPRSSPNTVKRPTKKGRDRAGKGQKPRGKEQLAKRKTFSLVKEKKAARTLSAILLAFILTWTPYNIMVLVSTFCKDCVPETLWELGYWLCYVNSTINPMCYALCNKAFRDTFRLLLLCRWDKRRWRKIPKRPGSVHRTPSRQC
In words: Ca2+ mobilization counter-screen in M1R-CHOk1 cells. The settings on record: individual replicates (Supplementary Figure 5). Here is the method:
Primary screening and pharmacological characterization of compounds were performed using a CHO-K1 cell line that stably expresses human GPR139 (GPR139-CHOk1). The GPR139-CHOk1 cell line was kindly provided by H. Lundbeck A/S, Denmark[24]. GPR139-CHOk1 cells were grown in Ham’s F-12 Kaighn’s Modification Medium (ThermoFisher #21127030) supplemented with 10% dialyzed fetal bovine serum (US origin, ThermoFisher #26400044), 100 units/mL Penicillin-Streptomycin (ThermoFisher #15140122), and 1 mg/mL Geneticin (ThermoFisher #11811031). […] M1R-CHOk1 cells were purchased from The Missouri S&T cDNA Resource Center (#CEM100TN00). M1R-CHOk1 cells were grown in Ham’s F12 Medium (ThermoFisher #21765029) supplemented with 10% fetal bovine serum (Brazilian origin, ThermoFisher #10270106), 100 units/mL Penicillin-Streptomycin, and 0.25 mg/mL Geneticin. HEK293A cells transiently transfected with GPR139 were used for additional pharmacological assessment of signaling pathways activated by GPR139. HEK239A cells were generously provided by Dr. Asuka Inoue, Tohoku University, Japan. HEK293A cells were grown in Dulbecco’s Modified Eagle Medium (ThermoFisher #31966047) supplemented with 10% dialyzed fetal bovine serum and 100 units/mL Penicillin-Streptomycin. Cell lines were maintained at 37 °C in humidified incubator equilibrated with 5% CO2.
30,000 GPR139- or M1R-CHOk1 cells/well were seeded in black clear bottom tissue culture treated 96-well plates (Greiner #655090) and grown for 20–24 h. Cells were washed with HEPES buffer (Hank’s Balanced Salt Solution (HBBS) supplemented with 20 mM HEPES, 1 mM MgCl2, and 1 mM CaCl2; pH 7.4). Cells were loaded with 50 µL of 2 µM Fluo-4 AM dye (ThermoFisher #F14202) in HEPES buffer supplemented with 2.5 mM probenecid and 0.01% Pluronic F-68 (ThermoFisher #24040032) for 1 h at 37 °C. Cells were washed with HEPES buffer. 50 µL HEPES buffer supplemented with 2.5 mM probenecid was added, and the cells were incubated for 10 min at 37 °C before measurement. 50 µL test compounds diluted in HEPES buffer from DMSO stocks (final DMSO concentration of maximally 0.3%) were added automatically after baseline measurements. The intracellular calcium mobilization was measured on a FlexStation 3 Multimode Microplate Reader (Molecular Devices) at 37 °C with filters for excitation of 485 nm and emission of 525 nm.
In general terms: Calcium assays in cells follow changes in intracellular calcium, usually with a dye or a luminescent sensor.

Experiment [2] concerns the target T2, GPR139 (Homo sapiens, UniProt Q6DWJ6).
T2 sequence (Q6DWJ6 1-353): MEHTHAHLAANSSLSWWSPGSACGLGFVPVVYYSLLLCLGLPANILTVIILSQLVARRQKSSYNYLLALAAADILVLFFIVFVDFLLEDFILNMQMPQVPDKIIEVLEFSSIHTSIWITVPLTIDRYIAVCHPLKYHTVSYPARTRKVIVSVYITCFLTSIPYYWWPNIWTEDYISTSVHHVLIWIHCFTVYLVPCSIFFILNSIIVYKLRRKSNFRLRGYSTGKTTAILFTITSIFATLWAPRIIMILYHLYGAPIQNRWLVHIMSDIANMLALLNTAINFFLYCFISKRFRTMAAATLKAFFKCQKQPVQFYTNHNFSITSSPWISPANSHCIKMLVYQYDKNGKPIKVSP
The experiment is described as follows: Ca2+ mobilization assay, agonist mode, stable GPR139-CHOk1 cell line. In short, it runs like this:
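Agonist activity of compounds is assessed in stably transfected CHO-K1 cells using the calcium dye Fluo-4 at 37 °C in HEPES-buffered HBSS (pH 7.4). Efficacy is expressed relative to the reference agonist Lundbeck Cmp 1a, set as 100%.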

In experiment [3] the target is T2, GPR139. The experiment is described as follows: Ca2+ mobilization assay, antagonist mode (EC80 800 nM Lundbeck Cmp 1a after 20 min preincubation), GPR139-CHOk1. In short, it runs like this:
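Fluo-4-loaded GPR139-CHOk1 cells in HEPES-buffered HBSS (pH 7.4, 2.5 mM probenecid) given test compounds at 10 µM, then after 20 min challenged with 800 nM Lundbeck Cmp 1a (EC80). Calcium fluorescence read at 37 °C, 485/525 nm.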

Setting [4] is: Agonist mode, individual replicates (Supplementary Figure 4).
The mark [5] stands for this setting: individual replicates (Supplementary Figure 4).

Each structure is given as a SMILES string. Several values for one entry are separate records, joined by “and”; a condition that tells them apart may be missing. Equal values may be shown once.

In general, Emax refers to the size of the effect at its maximum, as opposed to the concentration needed. Consider `CC(=O)c1ccc(-c2nc(CC(=O)NC(C)c3ccccc3)no2)s1` (centres unmarked) [Compound 1.28, CC(C1=CC=CC=C1)NC(CC2=NOC(C3=CC=C(C(C)=O)S3)=N2)=O], for which the “Ca2+ signal (% of Carbachol)” value in experiment [1] is -12 % of Carbachol and -1.79 % of Carbachol and -4.4 % of Carbachol. The “Ca2+ signal (% of Cmp 1a)” value at GPR139 [2] (setting [4]) is 64 % of Cmp 1a and 62 % of Cmp 1a and 50 % of Cmp 1a; at GPR139 [2] (log [Compound] M = -4.5, individual replicate columns) it was 66 % of Cmp 1a and 68 % of Cmp 1a and 55 % of Cmp 1a and 56 % of Cmp 1a and 59 % of Cmp 1a; at GPR139 [2] (log [Compound] M = -5.0, individual replicate columns) it was 77 % of Cmp 1a and 66 % of Cmp 1a and 55 % of Cmp 1a and 46 % of Cmp 1a and 59 % of Cmp 1a; on GPR139 [2] (log [Compound] M = -5.5, individual replicate columns), 54 % of Cmp 1a and 43 % of Cmp 1a and 37 % of Cmp 1a and 21 % of Cmp 1a and 29 % of Cmp 1a; on GPR139 [2] (log [Compound] M = -6.0, individual replicate columns), 23 % of Cmp 1a and 21 % of Cmp 1a and 9 % of Cmp 1a and 3.16 % of Cmp 1a and 14 % of Cmp 1a; at GPR139 [2] (log [Compound] M = -6.5, individual replicate columns) it was 6.51 % of Cmp 1a and 1.59 % of Cmp 1a and -12 % of Cmp 1a and -2.27 % of Cmp 1a and -4.37 % of Cmp 1a. The “Ca2+ signal (% of Cmp 1a)” value on GPR139 [2] (log [Compound] M = -7.0, individual replicate columns) is -1.28 % of Cmp 1a and 2.34 % of Cmp 1a and -6.44 % of Cmp 1a and 7 % of Cmp 1a and -2 % of Cmp 1a; at GPR139 [2] (log [Compound] M = -7.5, individual replicate columns), 0.626 % of Cmp 1a and 6.36 % of Cmp 1a and -9 % of Cmp 1a and -0.267 % of Cmp 1a and 3 % of Cmp 1a; on GPR139 [2] (log [Compound] M = -8.0, individual replicate columns), -4.49 % of Cmp 1a and 4.31 % of Cmp 1a and -8 % of Cmp 1a and 1.18 % of Cmp 1a and -3.25 % of Cmp 1a; at GPR139 [2] (log [Compound] M = -8.5, individual replicate columns), -6.33 % of Cmp 1a and -0.329 % of Cmp 1a and -3.24 % of Cmp 1a and -1.55 % of Cmp 1a and -1.43 % of Cmp 1a; on GPR139 [2] (log [Compound] M = -9.0, individual replicate columns) it was -6.38 % of Cmp 1a and -2.27 % of Cmp 1a and -10 % of Cmp 1a and -4 % of Cmp 1a and 1.43 % of Cmp 1a; at GPR139 [3] (setting [5]), 19 % of Cmp 1a and 58 % of Cmp 1a and 22 % of Cmp 1a. In addition, the “change in potency with larger substituents on the thiophene ring” value on GPR139 [2] (Ca2+ mobilization) is reported as “three-fold reduction to a complete loss of activity”. Besides, at GPR139 [2] (Supplementary Table 2, mean ± SEM, read-out: pEC50 Ca2+ (converted)), the EC50 was 2510 nM. In addition, the Emax at GPR139 [2] (Supplementary Table 2, normalized to Lundbeck Cmp 1a, mean ± SEM, read-out: Emax (%) Ca2+) came out at 66 ± 3%.
Consider `Cc1ccc(C(C)NC(=O)Nc2ccc3c(c2)CCCC3=O)o1` (centres unmarked) [Compound 49, CC(NC(=O)NC=1C=CC=2C(=O)CCCC2C1)C3=CC=C(C)O3], for which the “Ca2+ signal (% of Cmp 1a)” value is 20 % of Cmp 1a and 6 % of Cmp 1a and 32 % of Cmp 1a at GPR139 [2] (Agonist mode, individual replicates (Supplementary Figure 1)); 51.3038 % of Cmp 1a and 78.2883 % of Cmp 1a and 60.6272 % of Cmp 1a at GPR139 [3] (individual replicates (Supplementary Figure 1)).
With `COc1ccc(OCc2nc(CC(=O)NC(C)c3ccccc3)no2)cc1` (centres unmarked) [Compound 1.37, COC1=CC=C(OCC2=NC(CC(NC(C3=CC=CC=C3)C)=O)=NO2)C=C1], the “Ca2+ signal (% of Cmp 1a)” value at GPR139 [2] (setting [4]) was 65 % of Cmp 1a and 55 % of Cmp 1a and 21 % of Cmp 1a; at GPR139 [3] (setting [5]), 36 % of Cmp 1a and 40 % of Cmp 1a and 37 % of Cmp 1a.

Source of the values: article PMC12775434, “Ultra-large virtual screening unveils potent agonists of the neuromodulatory orphan receptor GPR139” (Nature Communications, 2025).
